Data set [1] concerns the target Histamine H3 receptor (Homo sapiens, UniProt Q9Y5N1). The experiment in a line: Displacement of [3H]-(R)-alpha-methylhistamine from human H3 receptor expressed in HEK293T cells after 120 mins by scintillation counting. The format is cell-based, HEK-293T. (In general: Displacement assays read how much labelled ligand stays bound in the presence of the test substance.)

Data set [2] addresses hERG (KCNH2) (Homo sapiens, UniProt Q12809). The experiment in a line: Inhibition of human ERG at 10 uM by IonWorks assay. A general note: Patch clamp records ionic current or voltage across a cell membrane.
Data set [3] deals with Histamine H3 receptor (Rattus norvegicus, UniProt Q9QYN8). The data set is described as follows: Displacement of [3H]-(R)-alpha-methylhistamine from rat H3 receptor expressed in HEK293T cells after 120 mins by scintillation counting. Type of data set: cell-based, HEK-293T.
Chain of Histamine H3 receptor (Rattus norvegicus, UniProt Q9QYN8) (Q9QYN8 whole entry): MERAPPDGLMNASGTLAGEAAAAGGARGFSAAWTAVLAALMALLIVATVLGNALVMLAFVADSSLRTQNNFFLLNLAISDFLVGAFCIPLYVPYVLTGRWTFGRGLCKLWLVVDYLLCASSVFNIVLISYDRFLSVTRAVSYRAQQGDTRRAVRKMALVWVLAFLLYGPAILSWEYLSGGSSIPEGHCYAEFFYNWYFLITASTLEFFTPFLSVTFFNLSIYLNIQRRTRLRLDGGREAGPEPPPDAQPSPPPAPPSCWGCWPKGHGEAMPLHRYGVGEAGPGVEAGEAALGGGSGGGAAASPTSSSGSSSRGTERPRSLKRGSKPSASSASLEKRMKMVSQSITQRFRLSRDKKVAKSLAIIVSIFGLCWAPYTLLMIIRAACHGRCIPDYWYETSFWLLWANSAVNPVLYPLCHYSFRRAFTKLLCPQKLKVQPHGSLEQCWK
The target of data set [4] is Voltage-gated inwardly rectifying potassium channel KCNH2 (Homo sapiens, UniProt Q12809). The data set is described as follows: Inhibition of human ERG by IonWorks assay.
Chain of Voltage-gated inwardly rectifying potassium channel KCNH2 (Q12809 whole entry): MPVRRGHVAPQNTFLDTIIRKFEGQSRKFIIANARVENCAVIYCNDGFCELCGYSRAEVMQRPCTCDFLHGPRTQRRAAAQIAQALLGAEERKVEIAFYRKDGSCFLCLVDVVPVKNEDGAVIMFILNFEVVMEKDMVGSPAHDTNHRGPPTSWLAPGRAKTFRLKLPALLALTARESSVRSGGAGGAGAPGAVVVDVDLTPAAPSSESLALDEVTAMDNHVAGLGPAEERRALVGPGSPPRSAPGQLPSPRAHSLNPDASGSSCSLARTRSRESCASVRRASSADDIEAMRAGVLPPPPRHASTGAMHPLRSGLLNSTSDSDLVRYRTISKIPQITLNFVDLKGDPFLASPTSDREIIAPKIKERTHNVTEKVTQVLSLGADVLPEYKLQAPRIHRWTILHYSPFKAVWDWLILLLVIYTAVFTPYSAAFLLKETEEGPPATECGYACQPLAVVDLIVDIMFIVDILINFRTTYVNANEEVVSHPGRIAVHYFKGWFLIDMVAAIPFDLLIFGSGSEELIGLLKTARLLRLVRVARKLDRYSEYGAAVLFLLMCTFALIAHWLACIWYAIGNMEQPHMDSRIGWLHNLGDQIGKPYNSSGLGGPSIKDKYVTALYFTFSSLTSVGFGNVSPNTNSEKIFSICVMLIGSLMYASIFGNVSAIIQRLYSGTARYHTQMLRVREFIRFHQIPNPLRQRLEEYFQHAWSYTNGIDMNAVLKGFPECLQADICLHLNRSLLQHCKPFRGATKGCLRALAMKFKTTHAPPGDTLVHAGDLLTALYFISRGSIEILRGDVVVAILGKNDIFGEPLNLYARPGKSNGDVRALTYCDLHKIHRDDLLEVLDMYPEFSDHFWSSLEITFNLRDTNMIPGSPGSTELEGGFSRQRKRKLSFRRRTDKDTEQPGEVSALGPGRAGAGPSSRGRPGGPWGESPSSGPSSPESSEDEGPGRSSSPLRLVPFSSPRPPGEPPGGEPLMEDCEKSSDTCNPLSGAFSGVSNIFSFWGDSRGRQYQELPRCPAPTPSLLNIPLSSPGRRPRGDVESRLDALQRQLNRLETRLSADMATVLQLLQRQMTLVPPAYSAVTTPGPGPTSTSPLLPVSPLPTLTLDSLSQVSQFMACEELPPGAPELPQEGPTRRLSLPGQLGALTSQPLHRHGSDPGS

As a reminder, the Ki is the dissociation constant of the complex between target and ligand, obtained from inhibition or displacement. Read a high Ki as lower affinity. What is called inhibition is the relative decrease from the control value, in per cent. What is called IC50 is the concentration that gives 50% inhibition. The low end stands for greater potency, the high end for weaker potency.

Chain of Histamine H3 receptor (Homo sapiens, UniProt Q9Y5N1) (Q9Y5N1 whole entry): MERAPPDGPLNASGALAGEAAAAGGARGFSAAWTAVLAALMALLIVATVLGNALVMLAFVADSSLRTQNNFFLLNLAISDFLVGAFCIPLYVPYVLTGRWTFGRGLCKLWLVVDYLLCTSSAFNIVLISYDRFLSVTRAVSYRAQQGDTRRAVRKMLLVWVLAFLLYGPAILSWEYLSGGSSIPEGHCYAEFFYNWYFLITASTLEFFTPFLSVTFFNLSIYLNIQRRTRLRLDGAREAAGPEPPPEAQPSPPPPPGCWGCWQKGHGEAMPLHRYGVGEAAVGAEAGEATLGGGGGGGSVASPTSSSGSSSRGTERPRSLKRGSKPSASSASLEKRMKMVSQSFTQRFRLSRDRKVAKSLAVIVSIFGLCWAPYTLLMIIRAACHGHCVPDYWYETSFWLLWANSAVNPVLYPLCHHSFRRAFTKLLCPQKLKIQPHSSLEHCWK
Chain of hERG (KCNH2) (Q12809 whole entry): as the sequence (Q12809 whole entry) above

`O=C1c2ccc(-c3ccc(F)cc3)cc2CCN1CCN1CCCCC1` gave a Ki in data set [1] of 0.0078 µM. That is a single-digit nanomolar value.
Same read-out and setting: under `CC(C)NC(=O)c1ccc(-c2ccc3c(c2)CCN(CCN2CCCC2)C3=O)cc1` stands 0.0019 µM.
`O=C(c1ccc(-c2ccc3c(c2)CCN(CCN2CCCC2)C3=O)cc1)C1CC1` had an inhibition at 10 µM in data set [2] of 65%. In data set [1], this compound gave an inhibition constant (Ki) of 0.006 µM.
In the case of `C[C@H]1CCCN1CCN1CCc2cc(-c3ccc(C#N)cc3)ccc2C1=O`, in data set [3], the Ki worked out at 0.049 µM.
As to `O=C(c1ccc(-c2ccc3c(c2)CCN(CCN2CCCC2)C3=O)cc1Cl)N1CCCC1`, the 50% inhibitory concentration (IC50) in data set [4] amounted to 9.3 µM. The compound also had a Ki in data set [1] of 0.0016 µM.
In data set [1], `O=C(c1ccc(-c2ccc3c(c2)CCN(CCN2CCCC2)C3=O)cc1)N1CCCC1` displayed a Ki of 0.0024 µM.
For the compound `NC(=O)c1ccc(-c2ccc3c(c2)CCN(CCN2CCCC2)C3=O)cc1`, the inhibition at 10 µM in data set [2] came out at 14%. For the same compound, the Ki in data set [1] came to 0.006 µM.
With `C[C@@H]1CCCN1CCN1CCc2c(cccc2-c2ccc(C#N)cc2)C1=O`, the inhibition at 10 µM in data set [2] stood at 96%. In data set [1], this compound yielded a Ki of 0.0217 µM.
The compound `O=C(c1ccc(-c2ccc3c(c2)CCN(CCN2CCCC2)C3=O)c(F)c1)N1CCCC1` returned an IC50 in data set [4] of 11.3 µM. Further, the Ki in data set [1] came out at 0.0032 µM.
On the same counts, the results for `O=C(c1ccc(-c2ccc3c(c2)CCN(CCN2CCCC2)C3=O)cc1F)N1CCCC1` are 8.8 µM and 0.0013 µM.
On the same counts, the results for `O=C(NC1CC1)c1ccc(-c2ccc3c(c2)CCN(CCN2CCCC2)C3=O)cc1` are 11 µM and 0.0027 µM.
For `C[C@H]1CCCN1CCN1CCc2cc(-c3ccc(F)cc3)ccc2C1=O`, the Ki in data set [3] is 0.11 µM; in data set [1] it was 0.0127 µM.
In the case of `CNC(=O)c1ccc(-c2ccc3c(c2)CCN(CCN2CCCC2)C3=O)cc1`, in data set [1], the Ki stood at 0.0013 µM.
For the compound `O=C1c2ccc(-c3ccccc3F)cc2CCN1CCN1CCCC1`, the Ki came to 0.174 µM in data set [3] and 0.0141 µM in data set [1].
In turn, `C[C@@H]1CCCN1CCN1CCc2cc(Oc3ccc(C#N)nc3)ccc2C1=O` registered an inhibition at 10 µM in data set [2] of 99%. This compound also displayed a Ki in data set [1] of 0.0003 µM.
`CN(C)C(=O)c1ccc(-c2ccc3c(c2)CCN(CCN2CCCC2)C3=O)c(F)c1` came in with an IC50 in data set [4] of 32.5 µM. In data set [1], this compound had a Ki of 0.0031 µM.
In the case of `O=C1c2ccc(-c3ccccc3)cc2CCN1CCN1CCCC1`, the results for the Ki in data set [3] and in data set [1] were 0.145 µM and 0.0114 µM, respectively.
As for `C[C@@H]1CCCN1CCN1CCc2cc(-c3ccc(C#N)cc3)ccc2C1=O`, the IC50 in data set [4] came to 0.14 µM. In addition, the Ki in data set [3] was 0.0058 µM.
Turning to `CNC(=O)c1ccc(-c2ccc3c(c2)CCN(CCN2CCC[C@H]2C)C3=O)cc1`, the IC50 in data set [4] stood at 17 µM. In data set [1], this compound came in with a Ki of 0.001 µM.
Regarding `O=C1c2ccc(-c3cccc(F)c3)cc2CCN1CCN1CCCC1`, the inhibition constant Ki in data set [3] turned out to be 0.164 µM; in data set [1], 0.0116 µM.
In turn, `CNC(=O)c1ccc(-c2ccc3c(c2)CCN(CCN2CCCC2)C3=O)c(F)c1` gave a Ki in data set [1] of 0.0017 µM.
As to `O=C1c2ccc(-c3ccc(F)c(F)c3)cc2CCN1CCN1CCCC1`, the Ki in data set [3] amounted to 0.082 µM; in data set [1], 0.0077 µM.
In the case of `O=C1c2ccc(-c3ccncc3)cc2CCN1CCN1CCCC1`, in data set [2], the inhibition at 10 µM was found to be 93%. For the same compound, affinity in data set [1] was put at a Ki of 0.0078 µM.
In turn, `C[C@@H]1CCCN1CCN1CCc2cc(-c3ccc(F)cc3)ccc2C1=O` came in with an IC50 in data set [4] of 0.3 µM. For the same compound, the Ki in data set [3] amounted to 0.023 µM; in data set [1], 0.0012 µM.
Take `N#Cc1ccc(-c2ccc3c(c2)CCN(CCCN2CCCC2)C3=O)cc1`: the values for the Ki in data set [3] and in data set [1] were 0.27 µM and 0.0069 µM, respectively.
The corresponding values for `O=C1c2ccc(-n3cnc4ccccc43)cc2CCN1CCN1CCCC1` are 0.174 µM and 0.0008 µM.
`CCNC(=O)c1ccc(-c2ccc3c(c2)CCN(CCN2CCCC2)C3=O)cc1` registered a Ki in data set [1] of 0.0012 µM.
In turn, `C[C@@H]1CCCN1CCN1CCc2cc(Oc3ccc(C#N)cc3)ccc2C1=O` yielded an inhibition at 10 µM in data set [2] of 95%. In data set [1], affinity was put at a Ki of 0.0006 µM.
The corresponding values for `C[C@@H]1CCCN1CCN1CCc2ccc(-c3ccc(C#N)cc3)cc2C1=O` are 98% and 0.0024 µM.
For `N#Cc1cccc(-c2ccc3c(c2)CCN(CCN2CCCC2)C3=O)c1`, the Ki in data set [3] is 0.073 µM; in data set [1], 0.0034 µM.
On the same counts, the results for `O=C1c2ccc(-c3ccc(C(F)(F)F)cc3)cc2CCN1CCN1CCCC1` are 0.101 µM and 0.0093 µM.
On the same counts, the results for `O=C1c2ccc(-c3cc(F)cc(F)c3)cc2CCN1CCN1CCCC1` are 0.146 µM and 0.009 µM.
The corresponding values for `O=C1c2ccc(-c3ccc(F)cc3)cc2CCN1CCN1CCCC1` are 0.086 µM and 0.011 µM.
Take `O=C1c2ccc(-c3ccc(F)cc3F)cc2CCN1CCN1CCCC1`: the figures for the Ki in data set [3] and in data set [1] were 0.153 µM and 0.0081 µM, respectively.
With `O=C1c2ccc(-c3cccc(OC(F)(F)F)c3)cc2CCN1CCN1CCCC1`, the Ki was found to be 0.276 µM in data set [3] and 0.0284 µM in data set [1].
The corresponding values for `O=C1c2ccc(-c3cccc(C(F)(F)F)c3)cc2CCN1CCN1CCCC1` are 0.182 µM and 0.0064 µM.
As for `O=C(NC1CCC1)c1ccc(-c2ccc3c(c2)CCN(CCN2CCCC2)C3=O)cc1`, the IC50 in data set [4] is 2.5 µM. The compound also registered a Ki in data set [1] of 0.0021 µM.
Compound `C[C@@H]1CCCN1CCN1CCc2cc(Oc3ccc(C#N)cn3)ccc2C1=O` displayed an inhibition at 10 µM in data set [2] of 89%. In addition, the affinity in data set [1], expressed as Ki, was 0.0012 µM.
`O=C1c2ccc(-c3ccc(OC(F)(F)F)cc3)cc2CCN1CCN1CCCC1`: the Ki in data set [3] was 0.178 µM; in data set [1], 0.0149 µM.
With `C[C@@H]1CCCN1CCN1Cc2cc(-c3ccc(C#N)cc3)ccc2C1=O`, testing at 10 µM in data set [2] gave an inhibition of 98%. Besides, the Ki in data set [1] is 0.0238 µM.
Turning to `N#Cc1ccc(-c2ccc3c(c2)CCN(CCN2CCCC2)C3=O)cc1`, the Ki in data set [3] was found to be 0.025 µM; in data set [1] it was 0.0039 µM.
The corresponding values for `N#Cc1ccc(-c2ccc3c(c2)CCN(CCCN2CCCCC2)C3=O)cc1` are 0.153 µM and 0.018 µM.

(Values after ChEMBL document CHEMBL2029265, “2-(Pyrrolidin-1-yl)ethyl-3,4-dihydroisoquinolin-1(2H)-one derivatives as potent and selective histamine-3 receptor antagonists” (J Med Chem, 2012).)
